Test results: patent US20220227709A1, “COMPOSITIONS AND METHODS FOR TREATING SCHISTOSOMA INFECTIONS” (THE BOARD OF REGENTS OF THE UNIVERSITY OF TEXAS SYSTEM, priority 2019, published 2022)

Tests used:
[1] = system: S. mansoni adult schistosomes; test: Schistosomiasis screening, adult worm killing (S. mansoni); assay type: cell-based, Schistosoma mansoni; conditions: for Kill % S. m: adult worms, final concentration 143 μM, 45 minutes incubation, washed, cultured 10-14 days, read day 14
Description: (§1) Schistosomiasis screening methods Strains of S. mansoni, S. haematobium, and S. japonicum were maintained by passage through species-specific snail intermediate hosts (Biomphlaria glabrata, Bulinus truncatus, and Oncomelania hupensis, respectively) and Golden Syrian Hamsters as a definitive host. Definitive host animals were sacrificed in accordance with IACUC protocol (UTHSCSA IACUC Protocol #08039) by intraperitoneal injection using Fatal-Plus (Butler Animal Health, Ohio), a sodium pentobarbital solution, with 10% heparin added. The adult parasites were obtained by perfusion as previously described using 0.9% saline containing EDTA.^1 Derivatives were solubilized in DMSO and diluted to working concentration of 50 mM and added directly to each well of a 24-well plate within 2-24 hours after harvesting adult schistosomes from the hamsters at a final concentration of 143 μM. Each analog was tested in triplicate. DMSO, oxamniquine (OXA, the parent drug known to kill only S. mansoni), or Hycanthone (HC, a carcinogen known to kill S. mansoni and S. haematobium) were used as controls as needed. Drugs were incubated with the worms at 37° C., 5% CO2 for 45 minutes, mimicking physiological conditions. The worms were washed with plain media 3 times to remove any residual derivatives. Worms were then incubated in culture media as previously described for a period of 10-14 days. On day 14, the assay gives % worms alive as an efficacy data point. For comparison, Oxaminiquine scores 50% alive in this assay.

[2] = system: S. japonicum adult schistosomes; test: Schistosomiasis screening, adult worm killing (S. japonicum); assay type: cell-based, Schistosoma japonicum; conditions: adult worms, final concentration 143 μM, 45 minutes incubation, washed, cultured 10-14 days, read day 14
Description: as §1

[3] = system: S. haematobium adult schistosomes; test: Schistosomiasis screening, adult worm killing (S. haematobium); assay type: cell-based, Schistosoma haematobium; conditions: adult worms, final concentration 143 μM, 45 minutes incubation, washed, cultured 10-14 days, read day 14
Description: as §1

Compound | Kill % S. m [1] [%] | other results
CC(=O)Nc1cnc(COC(N)=O)n1C [CIDD-0150332] | 17 | 
O=[N+]([O-])c1ccc2cc(O)c3cccc4ccc1c2c43 [CIDD-0150330] | 10 | 
CN(C)CCCNC(=O)c1cccc2c(N)c3ccccc3nc12 [CIDD-0150238] | 6 | 
C=CCN(N=O)C(C)OC(C)=O (stereo not shown) [CIDD-0150326] | 3.3 | 
CCCCCS(=O)(=O)OCC [CIDD-0150334] | 47 | 
O=[N+]([O-])c1ccc2c(O)cc3cccc4ccc1c2c43 [CIDD-0150329] | 40 | 
O[C@@H]1c2ccccc2-c2cc3ccccc3c(F)c2[C@H]1O [CIDD-0150242] | 56 | 
Cc1c2ccccc2nc2c(C(=O)NCCN(C)C)cccc12 [CIDD-0150237] | 33 | 
CC(=O)OC(C)N(N=O)C1CC1 (stereo not shown) [CIDD-0150327] | 3.3 | 
CCCS(=O)(=O)OCC [CIDD-0150333] | 20 | 
Cc1c[nH]c2c1C13CC1CN(S(C)(=O)=O)C3=CC2=O (stereo not shown) [CIDD-0150241] | 33 | 
CCN(CC)CCNC(=O)c1cccc2c(N)c3ccccc3nc12 [CIDD-0150239] | 36 | 
O=C(O)CCCn1c2ccccc2c(=O)c2ccccc21 [CIDD-0150302] | 80 | Kill % S. j [2]: 40%; Kill % S. h [3]: 20%
O=[N+]([O-])c1ccc2c3c1ccc1cccc(c13)[C@@H](O)[C@H]2O [CIDD-0150328] | 16 | 
CN(C)CCNC(=O)c1cccc2c(N)c3cc(Cl)ccc3nc12 [CIDD-0150235] | 60 | 
C[C@@H](O)[C@H]1C(=O)N2C(C(=O)O)=C(S[C@@H]3CN[C@H](C(=O)Nc4cccc(C(=O)O)c4)C3)[C@H](C)[C@H]12 [CIDD-0150610] | 100 | Kill % S. j [2]: 100%; Kill % S. h [3]: 100%
Nc1c2ccccc2nc2c(C(=O)NCCNCCO)cccc12 [CIDD-0150236] | 43 | 
Cn1c([N+](=O)[O-])nc2c3ccccc3ccc21 [CIDD-0150605] | 13 | 
O=S([O-])([O-])=S.O=S([O-])([O-])=S.[Ag+].[Na+].[Na+].[Na+] [CIDD-0150303] | 100 | Kill % S. j [2]: 100%; Kill % S. h [3]: 40%
O=[N+]([O-])c1cc(NCC2(Cc3cccc(C(F)(F)F)c3)CCN(Cc3c[nH]c4ccccc34)C2)ccc1CO (stereo not shown) [CIDD-0149830, (4-(((1-((1H-indol-3-yl)methyl)-3-(3-(trifluoromethyl)benzyl)pyrrolidin-3-yl)methyl)amino)-2-nitrophenyl)methanol] | 100 | Kill % S. j [2]: 100%; Kill % S. h [3]: 100%
Cc1nc(SC[C@H](N)C(=O)O)c(N)n1C [CIDD-0150331] | 10 | 
Oc1cccc2c1ccc1c(F)c3ccccc3cc12 [CIDD-0150240] | 20 | 
c1cc2ccc3c4ccc5cccc(c(c1)c23)c54 [CIDD-0150609] | 16.6 | 
Cn1c([N+](=O)[O-])nc2ccc3ccccc3c21 [CIDD-0150606] | 100 | Kill % S. h [3]: 85.7%
CC(C)NCC1CCc2cc(CO)c([N+](=O)[O-])cc2N1 (stereo not shown) [Oxaminiquine, oxamniquine, reference compound] |  | % worms alive ([1]; day 14, control drug for comparison, species not given): 50%
OCC(O)COc1ccccc1C1CCCC1 (stereo not shown) [CIDD-0150607] | 50 | 
O=Nc1ccc2ccc3cc4ccccc4c4ccc1c2c34 [CIDD-0150608] | 93.3 | Kill % S. h [3]: 71.4%
